In patent US11168092B2 (priority 2019, dated 2021):
Values joined by “and” are separate entries in the source; they are usually repeats but may differ in a detail not shown here. Equal values may be shown once.

Key:
Assay type in all cases: cell-based
Parameters in all cases: unit not given here
lung cancer cells (A549) = tested on: lung cancer cells (A549)
[1] = tested on: ovarian cancer cells (SK-OV-3)
[2] = tested on: colorectal cancer cells (HCT15)
[3] = tested on: skin cancer cells (SK-MEL-2)

CC1=CC(=O)OCC23CCC(C)(O)C4CC5(O)C(CC(OC(=O)C=CC=CC(C(C)O)OCC1)C52C)OC43 [compound 1, (1R,4Z,6E,8R,12E,16aR,19S,20S,20aR,22R,23S,23aS)-19,23-dihydroxy-8-((R)-1-hydroxyethyl)-12,19,23a-trimethyl-10,11,17,18,19,20,20a,22,23,23a-decahydro-1H-1,22:20,23-dimethano[1,6,12]trioxacyclooctadecino[3,4-d]chromene-3,14(8H,16H)-dione]
Anticancer activity (value at given concentration) (lung cancer cells (A549)): 97.91 and 93.12 and 93.03 and 94.31 and 92.44 and 95.94
Anticancer activity (value at given concentration) [1]: 103.77 and 87.76 and 98.54 and 100.24 and 89.90 and 95.08
Anticancer activity (value at given concentration) [2]: 103.41 and 91.11 and 101.55 and 101.52 and 102.70 and 101.58
Anticancer activity (value at given concentration) [3]: 96.98 and 91.60 and 95.73 and 101.17 and 96.51 and 96.60
